In patent US20260092071A1, “COMPOUNDS AND COMPOSITIONS AS SMARCA2/4 DEGRADERS AND USES THEREOF” (REGENTS OF THE UNIVERSITY OF MICHIGAN, priority 2022, published 2026):
Read-outs that look alike come from different tables or passages of the source.

Columns and labels:
SMARCA4 = SMARCA4 (Homo sapiens, UniProt P51532); experiment: HiBiT assay for protein degradation, Hela SMARCA4-HiBiT cells (A series); assay type: cell-based; design: fuse HiBiT to the carboxy terminus of SMARCA2 (Promega CS302365) or SMARCA4 (Promega CS3023225); host or cells: HeLa (CRISPR/Cas9 HiBiT knock-in); details: for Dmax: read-out: SMARC A4 Hela HiBit Dmax(%); for DC50: read-out: SMARC A4 Hela HiBit DC50
Experimental: (§1) Hela cells were genetically modified via CRISPR/Cas9 to fuse HiBiT to the carboxy terminus of SMARCA2 (Promega CS302365) or SMARCA4 (Promega CS3023225). Cells were cultured in DMEM containing 10% FBS and 1% (Vol:Vol) penicillin-streptomycin. […] At the end of experiment, levels of SMARCA2 or SMARCA4 expression were assessed with Nano-Glo® HiBiT Lytic Detection Assay (Promega N3050). IC50 was obtained using the GraphPad Prism data analysis software.

SMARCA2 = SMARCA2 (Homo sapiens, UniProt P51531); experiment: HiBiT assay for protein degradation, Hela SMARCA2-HiBiT cells (A series); assay type: cell-based; design: Hela cells were genetically modified via CRISPR/Cas9 to fuse HiBiT to the carboxy terminus of SMARCA2; host or cells: HeLa (CRISPR/Cas9 HiBiT knock-in); details: for Dmax: read-out: SMARC A2 Hela HiBit Dmax (%); for DC50: read-out: SMARC A2 Hela HiBit DC50;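 as to SMARC A2 Hela HiBit Dmax (%): 24 h compound treatment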
Experimental: as §1

[1] = Hela SMARCA4-HiBiT cells, 24 hours treatment
[2] = Hela SMARCA2-HiBiT cells, 24 hours treatment

SMARCA4, sequence (P51532 whole entry): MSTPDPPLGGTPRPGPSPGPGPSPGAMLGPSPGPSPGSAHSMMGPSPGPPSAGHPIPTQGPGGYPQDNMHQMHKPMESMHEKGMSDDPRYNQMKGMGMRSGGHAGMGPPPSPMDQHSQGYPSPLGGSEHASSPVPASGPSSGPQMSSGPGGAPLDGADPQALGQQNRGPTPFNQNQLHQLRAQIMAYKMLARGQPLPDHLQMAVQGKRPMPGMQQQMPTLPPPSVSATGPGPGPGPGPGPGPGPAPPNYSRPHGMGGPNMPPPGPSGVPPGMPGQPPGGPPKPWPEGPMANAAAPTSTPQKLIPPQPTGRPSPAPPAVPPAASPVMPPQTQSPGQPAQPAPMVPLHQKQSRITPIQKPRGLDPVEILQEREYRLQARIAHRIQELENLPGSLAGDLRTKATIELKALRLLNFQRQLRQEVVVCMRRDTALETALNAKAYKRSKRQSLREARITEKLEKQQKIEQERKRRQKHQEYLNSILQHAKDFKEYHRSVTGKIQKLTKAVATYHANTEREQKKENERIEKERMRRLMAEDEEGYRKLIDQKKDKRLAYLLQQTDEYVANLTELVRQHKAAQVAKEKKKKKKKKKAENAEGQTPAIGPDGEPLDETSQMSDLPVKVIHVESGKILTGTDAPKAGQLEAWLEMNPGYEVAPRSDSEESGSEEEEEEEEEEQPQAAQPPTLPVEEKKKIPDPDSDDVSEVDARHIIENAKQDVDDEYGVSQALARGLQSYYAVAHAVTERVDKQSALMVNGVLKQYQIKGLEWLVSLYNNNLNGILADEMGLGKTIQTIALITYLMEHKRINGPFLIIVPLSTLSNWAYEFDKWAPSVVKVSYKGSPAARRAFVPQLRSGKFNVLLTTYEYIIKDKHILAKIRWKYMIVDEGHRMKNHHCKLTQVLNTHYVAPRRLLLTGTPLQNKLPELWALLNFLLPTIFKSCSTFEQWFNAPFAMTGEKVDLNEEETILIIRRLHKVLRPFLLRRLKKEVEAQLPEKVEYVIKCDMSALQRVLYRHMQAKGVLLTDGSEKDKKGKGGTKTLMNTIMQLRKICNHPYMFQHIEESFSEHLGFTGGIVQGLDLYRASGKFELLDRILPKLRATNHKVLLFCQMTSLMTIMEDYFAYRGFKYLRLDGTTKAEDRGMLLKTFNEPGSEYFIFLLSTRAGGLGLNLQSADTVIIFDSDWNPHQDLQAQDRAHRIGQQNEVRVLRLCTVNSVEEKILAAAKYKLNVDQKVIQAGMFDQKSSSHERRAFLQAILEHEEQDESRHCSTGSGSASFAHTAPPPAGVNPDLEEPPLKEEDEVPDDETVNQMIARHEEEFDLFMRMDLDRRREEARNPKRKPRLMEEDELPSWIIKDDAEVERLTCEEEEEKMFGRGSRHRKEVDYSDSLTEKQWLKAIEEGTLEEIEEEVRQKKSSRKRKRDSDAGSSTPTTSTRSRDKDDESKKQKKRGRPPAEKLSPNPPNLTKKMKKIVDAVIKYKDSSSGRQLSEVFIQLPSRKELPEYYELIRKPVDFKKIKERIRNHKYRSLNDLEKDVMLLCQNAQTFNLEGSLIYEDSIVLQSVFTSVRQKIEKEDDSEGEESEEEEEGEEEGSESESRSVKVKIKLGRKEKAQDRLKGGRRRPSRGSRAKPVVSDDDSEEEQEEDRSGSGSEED
SMARCA2, sequence (P51531 whole entry): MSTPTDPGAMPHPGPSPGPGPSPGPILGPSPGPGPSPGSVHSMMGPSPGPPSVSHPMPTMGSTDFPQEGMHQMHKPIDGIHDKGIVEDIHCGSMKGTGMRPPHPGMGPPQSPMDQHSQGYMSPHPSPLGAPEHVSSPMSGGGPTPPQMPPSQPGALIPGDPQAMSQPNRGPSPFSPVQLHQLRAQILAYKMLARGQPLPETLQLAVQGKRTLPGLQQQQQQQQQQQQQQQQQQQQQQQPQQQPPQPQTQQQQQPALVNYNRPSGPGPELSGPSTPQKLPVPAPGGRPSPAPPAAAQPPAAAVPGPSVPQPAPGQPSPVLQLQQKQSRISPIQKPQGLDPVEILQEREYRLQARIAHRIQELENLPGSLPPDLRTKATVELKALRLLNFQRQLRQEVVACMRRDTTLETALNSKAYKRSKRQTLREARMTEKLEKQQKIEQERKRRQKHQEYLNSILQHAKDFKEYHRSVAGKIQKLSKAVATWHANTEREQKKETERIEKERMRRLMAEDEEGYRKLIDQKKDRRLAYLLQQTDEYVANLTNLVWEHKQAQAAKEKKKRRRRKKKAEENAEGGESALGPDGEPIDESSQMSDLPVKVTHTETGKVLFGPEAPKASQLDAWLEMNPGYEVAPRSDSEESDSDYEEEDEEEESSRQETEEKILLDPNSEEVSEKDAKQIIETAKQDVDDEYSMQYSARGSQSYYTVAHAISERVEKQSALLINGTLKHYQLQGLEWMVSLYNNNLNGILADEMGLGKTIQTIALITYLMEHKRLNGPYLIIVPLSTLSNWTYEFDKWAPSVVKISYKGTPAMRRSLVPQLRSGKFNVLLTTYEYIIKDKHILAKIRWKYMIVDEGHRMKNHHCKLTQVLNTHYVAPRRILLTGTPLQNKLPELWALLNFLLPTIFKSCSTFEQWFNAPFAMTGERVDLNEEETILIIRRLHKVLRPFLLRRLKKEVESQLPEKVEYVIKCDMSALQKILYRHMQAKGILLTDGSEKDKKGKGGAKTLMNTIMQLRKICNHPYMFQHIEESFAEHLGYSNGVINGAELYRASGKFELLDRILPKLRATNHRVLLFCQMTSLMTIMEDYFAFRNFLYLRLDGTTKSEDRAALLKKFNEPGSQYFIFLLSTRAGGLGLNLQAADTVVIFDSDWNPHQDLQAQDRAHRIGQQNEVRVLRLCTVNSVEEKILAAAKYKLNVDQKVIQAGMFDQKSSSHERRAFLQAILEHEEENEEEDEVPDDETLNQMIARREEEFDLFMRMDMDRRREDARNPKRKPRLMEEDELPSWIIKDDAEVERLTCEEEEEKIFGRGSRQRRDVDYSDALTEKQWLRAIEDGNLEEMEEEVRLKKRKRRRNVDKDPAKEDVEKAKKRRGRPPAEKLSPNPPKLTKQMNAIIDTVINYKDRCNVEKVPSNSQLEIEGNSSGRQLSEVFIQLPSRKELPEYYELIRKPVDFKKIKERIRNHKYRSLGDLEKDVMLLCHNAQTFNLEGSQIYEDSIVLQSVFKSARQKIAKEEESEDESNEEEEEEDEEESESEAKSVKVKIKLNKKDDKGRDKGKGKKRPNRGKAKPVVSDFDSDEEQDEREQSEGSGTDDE

SMARC A4 Hela HiBit DC50(nM) (SMARCA4; [1])	DC50 (SMARCA2; [2]) [nM]	Dmax (SMARCA4; [1]) [%]	Dmax (SMARCA2; [2]) [%]	SMARC A4 Hela HiBit Dmax(%) (SMARCA4; [1])	DC50 (SMARCA4) [nM]	SMARC A2 Hela HiBit Dmax (%) (SMARCA2; [2])	DC50 (SMARCA2) [nM]	SMILES	Dmax (SMARCA4; HeLa) [%]	Dmax (SMARCA2; HeLa) [%]	DC50 (SMARCA4; [1]) [nM]
No fit	501 to 1000	< 50	50 to 69					Cc1ncsc1-c1ccc([C@H](CCCCN2CCC(c3ccc4c(c3)-n3c(nc(=O)c5c(Cl)cccc53)C43CCOCC3)CC2)NC(=O)[C@@H]2C[C@@H](O)CN2C(=O)[C@@H](NC(=O)C2(F)CC2)C(C)(C)C)cc1 [Compound A10, (2S,4R)—N—((S)-5-(4-(4-chloro-5-oxo-2′,3′,5′,6′-tetrahydro-5H-spiro[indolo[1,2-a]quinazoline-7,4′-pyran]-10-yl)piperidin-1-yl)-1-(4-(4-methylthiazol-5-yl)phenyl)pentyl)-1-((S)-2-(1-fluorocyclopropane-1-carboxamido)-3,3-dimethylbutanoyl)-4-hydroxypyrrolidine-2-carboxamide]			
	100 to 500	50 to 69	70 to 90					Cc1ncsc1-c1ccc([C@H](C)NC(=O)[C@@H]2C[C@@H](O)CN2C(=O)[C@@H](NC(=O)[C@H]2CC[C@H](CN3CC(N4CCC(c5ccc6c(c5)C5(CCCCC5)c5nc(=O)c7c(Cl)cccc7n5-6)CC4)C3)CC2)C(C)(C)C)cc1 [Compound A12, (2S,4R)-1-((S)-2-((1r,4S)-4-((3-(4-(4′-chloro-5′-oxo-5′H-spiro[cyclohexane-1,7′-indolo[1,2-a]quinazolin]-9′-yl)piperidin-1-yl)azetidin-1-yl)methyl)cyclohexane-1-carboxamido)-3,3-dimethylbutanoyl)-4-hydroxy-N—((S)-1-(4-(4-methylthiazol-5-yl)phenyl)ethyl)pyrrolidine-2-carboxamide]			501 to 1000
No fit	< 100	< 50	70 to 90					Cc1ncsc1-c1ccc([C@H](C)NC(=O)[C@@H]2C[C@@H](O)CN2C(=O)[C@@H](NC(=O)[C@H]2CC[C@H](CN3CCC(N4CCC(c5ccc6c(c5)C5(CCCCC5)c5nc(=O)c7c(Cl)cccc7n5-6)CC4)CC3)CC2)C(C)(C)C)cc1 [Compound A13, (2S,4R)-1-((S)-2-((1r,4S)-4-((4-(4′-chloro-5′-oxo-5′H-spiro[cyclohexane-1,7′-indolo[1,2-a]quinazolin]-9′-yl)-[1,4′-bipiperidin]-1′-yl)methyl)cyclohexane-1-carboxamido)-3,3-dimethylbutanoyl)-4-hydroxy-N—((S)-1-(4-(4-methylthiazol-5-yl)phenyl)ethyl)pyrrolidine-2-carboxamide]			
No Fit	< 100	< 50	> 90					Cc1ncsc1-c1ccc([C@H](CN(C)C)NC(=O)[C@@H]2C[C@@H](O)CN2C(=O)[C@@H](NC(=O)[C@H]2CC[C@H](CN3CCC(c4ccc5c(c4)C4(CCCCC4)c4nc(=O)c6c(Br)cccc6n4-5)CC3)CC2)C(C)(C)C)cc1 [Compound A15]			
	< 100	50 to 69	> 90					Cc1ncsc1-c1ccc([C@H](CN2CCOCC2)NC(=O)[C@@H]2C[C@@H](O)CN2C(=O)[C@@H](NC(=O)[C@H]2CC[C@H](CN3CCC(c4ccc5c(c4)C4(CCCCC4)c4nc(=O)c6c(Br)cccc6n4-5)CC3)CC2)C(C)(C)C)cc1 [Compound A16, (2S,4R)-1-((S)-2-((1r,4S)-4-((4-(4′-bromo-5′-oxo-5′H-spiro[cyclohexane-1,7′-indolo[1,2-a]quinazolin]-9′-yl)piperidin-1-yl)methyl)cyclohexane-1-carboxamido)-3,3-dimethylbutanoyl)-4-hydroxy-N—((R)-1-(4-(4-methylthiazol-5-yl)phenyl)-2-morpholinoethyl)pyrrolidine-2-carboxamide]			501 to 1000
	< 100	> 90	70 to 90					Cc1ncsc1-c1ccc([C@H](CCCCCN2CCC(c3ccc4c(c3)C3(CCCCC3)c3nc(=O)c5c(Br)cccc5n3-4)CC2)NC(=O)[C@@H]2C[C@@H](O)CN2C(=O)[C@@H](NC(=O)C2(N(C)C)CC2)C(C)(C)C)cc1 [Compound A17, (2S,4R)—N—((S)-6-(4-(4′-bromo-5′-oxo-5′H-spiro[cyclohexane-1,7′-indolo[1,2-a]quinazolin]-9′-yl)piperidin-1-yl)-1-(4-(4-methylthiazol-5-yl)phenyl)hexyl)-1-((S)-2-(1-(dimethylamino)cyclopropane-1-carboxamido)-3,3-dimethylbutanoyl)-4-hydroxypyrrolidine-2-carboxamide]			< 100
				B (B (70-90% degradation))	< 100	B (B (70-90% degradation))	< 100	Cc1ncsc1-c1ccc([C@H](CCCCCN2CCC(c3ccc4c(c3)C3(CCCCC3)c3nc(=O)c5c(Br)cccc5n3-4)CC2)NC(=O)[C@@H]2C[C@@H](O)CN2C(=O)[C@@H](NC(=O)C2(CN(C)C)CC2)C(C)(C)C)cc1 [Compound A18, (2S,4R)—N—((S)-6-(4-(4′-bromo-5′-oxo-5′H-spiro[cyclohexane-1,7′-indolo[1,2-a]quinazolin]-9′-yl)piperidin-1-yl)-1-(4-(4-methylthiazol-5-yl)phenyl)hexyl)-1-((S)-2-(1-((dimethylamino)methyl)cyclopropane-1-carboxamido)-3,3-dimethylbutanoyl)-4-hydroxypyrrolidine-2-carboxamide]			

SMILES	SMARC A4 Hela HiBit DC50(nM) (SMARCA4; [1])	DC50 (SMARCA2; [2]) [nM]	Dmax (SMARCA4; [1]) [%]	Dmax (SMARCA2; [2]) [%]	SMARC A4 Hela HiBit Dmax(%) (SMARCA4; [1])	DC50 (SMARCA4) [nM]	SMARC A2 Hela HiBit Dmax (%) (SMARCA2; [2])	DC50 (SMARCA2) [nM]	Dmax (SMARCA4; HeLa) [%]	Dmax (SMARCA2; HeLa) [%]	DC50 (SMARCA4; [1]) [nM]
Cc1ncsc1-c1ccc([C@H](C)NC(=O)[C@@H]2C[C@@H](O)CN2C(=O)[C@@H](NC(=O)CCCN2CCC(c3ccc4c(c3)C3(CCCCC3)c3nc(=O)c5c(Cl)cccc5n3-4)CC2)C(C)(C)C)cc1 [Compound A7, (2S,4R)-1-((S)-2-(4-(4-(4′-chloro-5′-oxo-5′H-spiro[cyclohexane-1,7′-indolo[1,2-a]quinazolin]-9′-yl)piperidin-1-yl)butanamido)-3,3-dimethylbutanoyl)-4-hydroxy-N—((S)-1-(4-(4-methylthiazol-5-yl)phenyl)ethyl) pyrrolidine-2-carboxamide]	No fit	100 to 500							< 50	70 to 90	
Cc1ncsc1-c1ccc([C@H](C)NC(=O)[C@@H]2C[C@@H](O)CN2C(=O)[C@@H](NC(=O)CCCCN2CCC(c3ccc4c(c3)C3(CCCCC3)c3nc(=O)c5c(Cl)cccc5n3-4)CC2)C(C)(C)C)cc1 [Compound A8, (2S,4R)-1-((S)-2-(5-(4-(4′-chloro-5′-oxo-5′H-spiro[cyclohexane-1,7′-indolo[1,2-a]quinazolin]-9′-yl)piperidin-1-yl)pentanamido)-3,3-dimethylbutanoyl)-4-hydroxy-N—((S)-1-(4-(4-methylthiazol-5-yl)phenyl)ethyl) pyrrolidine-2-carboxamide]		100 to 500							< 50	70 to 90	> 1000
Cc1ncsc1-c1ccc([C@H](C)NC(=O)[C@@H]2C[C@@H](O)CN2C(=O)[C@@H](NC(=O)CCCCCN2CCC(c3ccc4c(c3)C3(CCCCC3)c3nc(=O)c5c(Cl)cccc5n3-4)CC2)C(C)(C)C)cc1 [Compound A9, (2S,4R)-1-((S)-2-(6-(4-(4′-chloro-5′-oxo-5′H-spiro[cyclohexane-1,7′-indolo[1,2-a]quinazolin]-9′-yl)piperidin-1-yl)hexanamido)-3,3-dimethylbutanoyl)-4-hydroxy-N—((S)-1-(4-(4-methylthiazol-5-yl)phenyl)ethyl) pyrrolidine-2-carboxamide]		< 100							50 to 69	> 90	501 to 1000
Cc1ncsc1-c1ccc([C@H](C)NC(=O)[C@@H]2C[C@@H](O)CN2C(=O)[C@@H](NC(=O)[C@H]2CC[C@H](CN3CCC(c4ccc5c(c4)C4(CCCCC4)c4nc(=O)c6c(Cl)cccc6n4-5)CC3)CC2)C(C)(C)C)cc1 [Compound A11, (2S,4R)-1-((S)-2-((1r,4S)-4-((4-(4′-chloro-5′-oxo-5′H-spiro[cyclohexane-1,7′-indolo[1,2-a]quinazolin]-9′-yl)piperidin-1-yl)methyl)cyclohexane-1-carboxamido)-3,3-dimethylbutanoyl)-4-hydroxy-N—((S)-1-(4-(4-methylthiazol-5-yl)phenyl)ethyl)pyrrolidine-2-carboxamide]	No fit	< 100							< 50	70 to 90	
Cc1ncsc1-c1ccc([C@H](C)NC(=O)[C@@H]2C[C@@H](O)CN2C(=O)[C@@H](NC(=O)[C@H]2CC[C@H](CN3CCC(c4ccc5c(c4)C4(CCCCC4)c4nc(=O)c6c(Br)cccc6n4-5)CC3)CC2)C(C)(C)C)cc1 [Compound A14, (2S,4R)-1-((S)-2-((1r,4S)-4-((4-(4′-bromo-5′-oxo-5′H-spiro[cyclohexane-1,7′-indolo[1,2-a]quinazolin]-9′-yl)piperidin-1-yl)methyl)cyclohexane-1-carboxamido)-3,3-dimethylbutanoyl)-4-hydroxy-N—((S)-1-(4-(4-methylthiazol-5-yl)phenyl)ethyl)pyrrolidine-2-carboxamide]		< 100							50 to 69	> 90	100 to 500
